Results published in ChEMBL document CHEMBL4229569, “Structure-Based Design of 1-Heteroaryl-1,3-propanediamine Derivatives as a Novel Series of CC-Chemokine Receptor 5 Antagonists” (J Med Chem, 2018).

Columns and labels:
[1] = target: C-C chemokine receptor type 5 (Homo sapiens, UniProt P51681); experiment: Antagonist activity at CCR5 (unknown origin) expressed in HEK293 cells co-expressing Galpha16 assessed as inhibition of RANTES-induced calcium flux preincubated for 10 mins followed by RANTES addition by fluo-4AM-based fluorescence assay; format: functional, cell-based
C-C chemokine receptor type 5, sequence (P51681 whole entry): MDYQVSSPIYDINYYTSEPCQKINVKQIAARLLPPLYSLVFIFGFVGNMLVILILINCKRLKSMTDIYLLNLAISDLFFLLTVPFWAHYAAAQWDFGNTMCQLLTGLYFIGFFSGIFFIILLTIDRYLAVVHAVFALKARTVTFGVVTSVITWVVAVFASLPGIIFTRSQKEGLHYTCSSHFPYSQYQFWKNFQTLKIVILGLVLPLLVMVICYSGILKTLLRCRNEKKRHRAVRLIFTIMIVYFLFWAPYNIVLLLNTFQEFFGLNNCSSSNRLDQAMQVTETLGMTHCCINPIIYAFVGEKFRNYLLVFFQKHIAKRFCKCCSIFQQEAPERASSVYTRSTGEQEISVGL

[2] = Cytotoxicity against human TZM-bl cells after 48 hrs by MTT assay; format: cell-based
[3] = Cmax in Sprague-Dawley rat at 20 mg/kg, po by LC-MS/MS analysis; format: ADME, organism-based; design: dose 20 mg/kg, route oral; settings: in vivo
[4] = Tmax in Sprague-Dawley rat at 20 mg/kg, po by LC-MS/MS analysis; format: ADME, organism-based; settings: in vivo
[5] = Half life in Sprague-Dawley rat at 20 mg/kg, po by LC-MS/MS analysis; format: ADME, organism-based; settings: in vivo
[6] = AUC (0 to infinity) in Sprague-Dawley rat at 20 mg/kg, po by LC-MS/MS analysis; format: ADME, organism-based; design: dose 20 mg/kg, route oral, time infinity; settings: in vivo
[7] = MRT in Sprague-Dawley rat at 20 mg/kg, po by LC-MS/MS analysis; format: ADME, organism-based; settings: in vivo
[8] = Oral bioavailability in Sprague-Dawley rat at 20 mg/kg by LC-MS/MS analysis; format: ADME, organism-based; settings: in vivo
[9] = Cmax in Sprague-Dawley rat at 10 mg/kg, iv by LC-MS/MS analysis; format: ADME, organism-based; design: dose 10 mg/kg, route intravenous; settings: in vivo
[10] = Tmax in Sprague-Dawley rat at 10 mg/kg, iv by LC-MS/MS analysis; format: ADME, organism-based; settings: in vivo
[11] = Half life in Sprague-Dawley rat at 10 mg/kg, iv by LC-MS/MS analysis; format: ADME, organism-based; settings: in vivo
[12] = AUC (0 to infinity) in Sprague-Dawley rat at 10 mg/kg, iv by LC-MS/MS analysis; format: ADME, organism-based; design: dose 10 mg/kg, time infinity, route intravenous; settings: in vivo
[13] = MRT in Sprague-Dawley rat at 10 mg/kg, iv by LC-MS/MS analysis; format: ADME, organism-based; settings: in vivo
[14] = Clearance in Sprague-Dawley rat at 10 mg/kg, iv by LC-MS/MS analysis; format: ADME, organism-based; settings: in vivo
[15] = Cmax in dog at 15 mg/kg, po by LC-MS/MS analysis; format: ADME, organism-based, Canis lupus familiaris; design: dose 15 mg/kg, route oral; settings: in vivo
[16] = Tmax in dog at 15 mg/kg, po by LC-MS/MS analysis; format: ADME, organism-based, Canis lupus familiaris; settings: in vivo
[17] = Half life in dog at 15 mg/kg, po by LC-MS/MS analysis; format: ADME, organism-based, Canis lupus familiaris; settings: in vivo
[18] = AUC (0 to infinity) in dog at 15 mg/kg, po by LC-MS/MS analysis; format: ADME, organism-based, Canis lupus familiaris; design: dose 15 mg/kg, time infinity, route oral; settings: in vivo
[19] = MRT in dog at 15 mg/kg, po by LC-MS/MS analysis; format: ADME, organism-based, Canis lupus familiaris; settings: in vivo
[20] = Oral bioavailability in dog at 15 mg/kg by LC-MS/MS analysis; format: ADME, organism-based, Canis lupus familiaris; settings: in vivo
[21] = Half life in dog at 3 mg/kg, iv by LC-MS/MS analysis; format: ADME, organism-based, Canis lupus familiaris; settings: in vivo
[22] = AUC (0 to infinity) in dog at 3 mg/kg, iv by LC-MS/MS analysis; format: ADME, organism-based, Canis lupus familiaris; design: dose 3 mg/kg, route intravenous, time infinity; settings: in vivo
[23] = MRT in dog at 3 mg/kg, iv by LC-MS/MS analysis; format: ADME, organism-based, Canis lupus familiaris; settings: in vivo
[24] = Clearance in dog at 3 mg/kg, iv by LC-MS/MS analysis; format: ADME, organism-based, Canis lupus familiaris; settings: in vivo
[25] = test system: Hepatocyte; experiment: Metabolic stability in human hepatocytes assessed as compound remaining by UPLC/Q-TOF mass spectrometric analysis; format: ADME, cell-based
[26] = test system: Hepatocyte; experiment: Metabolic stability in monkey hepatocytes assessed as compound remaining by UPLC/Q-TOF mass spectrometric analysis; format: ADME, cell-based, Macaca mulatta; settings: rhesus monkey
[27] = test system: Hepatocyte; experiment: Metabolic stability in dog hepatocytes assessed as compound remaining by UPLC/Q-TOF mass spectrometric analysis; format: ADME, cell-based, Canis lupus familiaris
[28] = test system: Hepatocyte; experiment: Metabolic stability in rat hepatocytes assessed as compound remaining by UPLC/Q-TOF mass spectrometric analysis; format: ADME, cell-based
[29] = target: Voltage-gated inwardly rectifying potassium channel KCNH2 (Homo sapiens, UniProt Q12809); experiment: Inhibition of human ERG expressed in CHO cells at holding potential of -80 mV after 60 secs by patch clamp assay; format: cell-based
Voltage-gated inwardly rectifying potassium channel KCNH2, sequence (Q12809 whole entry): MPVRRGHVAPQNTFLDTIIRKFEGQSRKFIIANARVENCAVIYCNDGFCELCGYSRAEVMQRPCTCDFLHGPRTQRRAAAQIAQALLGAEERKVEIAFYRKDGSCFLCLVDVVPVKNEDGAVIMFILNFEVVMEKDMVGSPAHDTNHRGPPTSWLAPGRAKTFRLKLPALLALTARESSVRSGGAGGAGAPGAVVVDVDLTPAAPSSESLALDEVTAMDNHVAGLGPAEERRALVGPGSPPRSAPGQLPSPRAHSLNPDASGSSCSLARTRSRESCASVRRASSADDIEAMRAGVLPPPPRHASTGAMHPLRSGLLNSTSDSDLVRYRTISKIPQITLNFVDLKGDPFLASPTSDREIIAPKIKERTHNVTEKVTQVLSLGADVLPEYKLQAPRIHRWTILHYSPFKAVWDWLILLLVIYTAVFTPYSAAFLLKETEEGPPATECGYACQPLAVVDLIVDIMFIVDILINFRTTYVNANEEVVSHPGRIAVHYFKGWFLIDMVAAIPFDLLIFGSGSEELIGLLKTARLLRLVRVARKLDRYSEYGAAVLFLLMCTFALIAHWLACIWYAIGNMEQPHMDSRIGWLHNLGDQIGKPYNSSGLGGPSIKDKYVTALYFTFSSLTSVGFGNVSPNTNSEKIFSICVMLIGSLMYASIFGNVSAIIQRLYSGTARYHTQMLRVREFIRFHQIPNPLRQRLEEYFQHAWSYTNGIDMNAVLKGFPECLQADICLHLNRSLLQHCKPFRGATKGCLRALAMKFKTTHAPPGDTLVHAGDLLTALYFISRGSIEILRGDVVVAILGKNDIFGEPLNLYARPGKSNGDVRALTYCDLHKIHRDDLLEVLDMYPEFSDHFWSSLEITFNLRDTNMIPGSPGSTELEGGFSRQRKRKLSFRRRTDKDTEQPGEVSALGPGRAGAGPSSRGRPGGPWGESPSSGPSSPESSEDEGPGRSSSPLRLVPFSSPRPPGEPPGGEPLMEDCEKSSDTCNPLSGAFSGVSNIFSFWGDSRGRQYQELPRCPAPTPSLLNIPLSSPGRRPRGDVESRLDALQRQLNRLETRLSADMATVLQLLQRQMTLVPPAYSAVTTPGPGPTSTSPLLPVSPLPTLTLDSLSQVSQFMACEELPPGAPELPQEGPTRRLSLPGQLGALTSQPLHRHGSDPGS

[30] = target: T1, Cytochrome P450 1A2 (Homo sapiens, UniProt P05177); experiment: Inhibition of CYP1A2 (unknown origin); format: ADME
T1 sequence (P05177 whole entry): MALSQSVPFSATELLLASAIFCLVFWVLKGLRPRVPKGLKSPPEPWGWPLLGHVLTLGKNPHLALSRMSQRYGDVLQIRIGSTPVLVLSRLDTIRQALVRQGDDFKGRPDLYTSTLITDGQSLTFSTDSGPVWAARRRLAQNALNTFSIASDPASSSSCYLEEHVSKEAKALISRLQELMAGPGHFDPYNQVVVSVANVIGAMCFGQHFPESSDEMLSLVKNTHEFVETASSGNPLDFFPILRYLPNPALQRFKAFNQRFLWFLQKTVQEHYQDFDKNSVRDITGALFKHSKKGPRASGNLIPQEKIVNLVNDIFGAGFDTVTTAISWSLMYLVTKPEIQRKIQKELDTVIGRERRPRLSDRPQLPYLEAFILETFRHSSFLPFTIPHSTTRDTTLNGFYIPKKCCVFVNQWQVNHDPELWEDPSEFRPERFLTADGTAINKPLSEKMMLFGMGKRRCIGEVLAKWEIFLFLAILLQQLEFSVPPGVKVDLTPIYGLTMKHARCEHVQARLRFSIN

[31] = target: Cytochrome P450 2C9 (Homo sapiens, UniProt P11712); experiment: Inhibition of CYP2C9 (unknown origin); format: ADME
Cytochrome P450 2C9, sequence (P11712 whole entry): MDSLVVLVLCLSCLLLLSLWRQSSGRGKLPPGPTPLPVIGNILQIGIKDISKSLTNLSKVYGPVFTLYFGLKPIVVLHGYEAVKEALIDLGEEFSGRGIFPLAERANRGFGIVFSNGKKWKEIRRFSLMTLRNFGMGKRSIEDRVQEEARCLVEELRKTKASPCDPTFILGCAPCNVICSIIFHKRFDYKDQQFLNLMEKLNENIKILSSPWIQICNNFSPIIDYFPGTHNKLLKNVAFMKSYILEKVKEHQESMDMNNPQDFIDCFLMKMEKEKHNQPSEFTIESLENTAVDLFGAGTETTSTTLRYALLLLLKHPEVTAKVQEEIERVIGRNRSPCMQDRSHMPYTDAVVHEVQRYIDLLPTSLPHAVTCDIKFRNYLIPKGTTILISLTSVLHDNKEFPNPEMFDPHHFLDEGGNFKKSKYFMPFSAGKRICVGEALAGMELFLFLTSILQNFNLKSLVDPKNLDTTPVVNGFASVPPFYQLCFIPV

[32] = target: Cytochrome P450 2C19 (Homo sapiens, UniProt P33261); experiment: Inhibition of CYP2C19 (unknown origin); format: ADME
Cytochrome P450 2C19, sequence (P33261 whole entry): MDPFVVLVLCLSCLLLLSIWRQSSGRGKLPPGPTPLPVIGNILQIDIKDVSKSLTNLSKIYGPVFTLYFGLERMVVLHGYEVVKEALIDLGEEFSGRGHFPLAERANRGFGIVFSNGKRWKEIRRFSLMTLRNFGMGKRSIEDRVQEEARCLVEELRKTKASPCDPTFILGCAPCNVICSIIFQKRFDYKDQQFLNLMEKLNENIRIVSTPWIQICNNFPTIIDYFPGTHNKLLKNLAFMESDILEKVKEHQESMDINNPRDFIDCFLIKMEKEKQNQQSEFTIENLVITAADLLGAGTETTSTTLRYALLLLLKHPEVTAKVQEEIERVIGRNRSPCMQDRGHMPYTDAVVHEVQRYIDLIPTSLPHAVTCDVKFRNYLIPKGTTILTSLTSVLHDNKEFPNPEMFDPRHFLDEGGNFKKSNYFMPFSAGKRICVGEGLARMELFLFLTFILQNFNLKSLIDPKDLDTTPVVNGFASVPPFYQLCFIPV

[33] = target: Cytochrome P450 2D6 (Homo sapiens, UniProt P10635); experiment: Inhibition of CYP2D6 (unknown origin); format: ADME
Cytochrome P450 2D6, sequence (P10635 whole entry): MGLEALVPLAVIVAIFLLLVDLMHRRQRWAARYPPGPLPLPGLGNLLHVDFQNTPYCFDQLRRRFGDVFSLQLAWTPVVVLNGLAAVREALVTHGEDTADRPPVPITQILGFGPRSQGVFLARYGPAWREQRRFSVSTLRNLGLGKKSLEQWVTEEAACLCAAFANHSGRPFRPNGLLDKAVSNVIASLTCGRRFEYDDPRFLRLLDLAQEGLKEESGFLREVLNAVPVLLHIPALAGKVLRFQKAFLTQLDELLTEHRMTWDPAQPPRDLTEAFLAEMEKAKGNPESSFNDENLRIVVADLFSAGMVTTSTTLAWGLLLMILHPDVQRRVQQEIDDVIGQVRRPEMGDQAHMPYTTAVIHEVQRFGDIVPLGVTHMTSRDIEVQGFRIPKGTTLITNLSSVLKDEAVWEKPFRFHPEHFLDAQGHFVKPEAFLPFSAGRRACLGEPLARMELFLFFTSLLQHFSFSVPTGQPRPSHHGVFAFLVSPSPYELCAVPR

[34] = target: T2, Cytochrome P450 3A4 (Homo sapiens, UniProt P08684); experiment: Inhibition of CYP3A4 (unknown origin) using midazolam as substrate; format: ADME
T2 sequence (P08684 whole entry): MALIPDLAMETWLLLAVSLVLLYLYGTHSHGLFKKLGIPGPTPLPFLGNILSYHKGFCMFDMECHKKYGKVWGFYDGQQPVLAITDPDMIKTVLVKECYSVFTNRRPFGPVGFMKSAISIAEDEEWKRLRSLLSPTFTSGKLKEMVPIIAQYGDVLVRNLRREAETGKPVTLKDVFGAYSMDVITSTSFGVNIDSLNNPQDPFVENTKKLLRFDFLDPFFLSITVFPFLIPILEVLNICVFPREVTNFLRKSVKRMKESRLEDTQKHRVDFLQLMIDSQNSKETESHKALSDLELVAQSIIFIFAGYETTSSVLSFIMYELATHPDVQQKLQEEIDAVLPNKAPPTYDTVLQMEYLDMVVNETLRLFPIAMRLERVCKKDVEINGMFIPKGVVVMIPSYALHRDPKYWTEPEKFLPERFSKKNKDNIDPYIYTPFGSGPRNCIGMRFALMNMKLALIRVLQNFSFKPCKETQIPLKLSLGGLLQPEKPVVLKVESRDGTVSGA

[35] = target: T2, Cytochrome P450 3A4; experiment: Inhibition of CYP3A4 (unknown origin) using testosterone as substrate; format: ADME
[36] = test system: Rattus norvegicus; experiment: Toxicity in rat assessed as mortality at 2000 mg/kg, po administered as single dose and measured during 14 days observation period; format: organism-based; settings: in vivo, 336 h
[37] = test system: Canis familiaris; experiment: Toxicity in po dosed dog assessed as drug tolerability administered as single dose; format: organism-based, Canis lupus familiaris; settings: in vivo
[38] = in vitro; settings: human, TZM-bl cells
Description: Therapeutic index, ratio of CC50 for human TZM-bl cells to EC50 for CCR5-dependent HIV1 SF162 infected in human TZM-bl cells

[39] = in vitro; settings: human, PBMC
Description: Therapeutic index, ratio of CC50 for human PBMC to IC50 for CCR5-dependent HIV1 SF162 infected in human PBMC cells

[40] = in vitro; settings: human, HOS cells
Description: Therapeutic index, ratio of CC50 for human HOS cells to IC50 for CCR5-dependent HIV1 SF162 infected in human HOS cells

[41] = in vitro; settings: human, PBMC; remark: listed apart in the source
Description: Therapeutic index, ratio of CC50 for human PBMC to IC50 for CCR5-dependent HIV1 KM018 infected in human PBMC

[42] = in vitro; settings: human, PBMC; remark: listed apart in the source
Description: Therapeutic index, ratio of CC50 for human PBMC to IC50 for CCR5-dependent HIV1 Ba-L infected in human PBMC

[43] = in vitro; settings: human, HOS cells; remark: listed apart in the source
Description: Therapeutic index, ratio of CC50 for human HOS cells to IC50 for CCR5-dependent HIV1 Ba-L infected in human HOS cells

[44] = in vitro; settings: human, PM1 cells
Description: Therapeutic index, ratio of CC50 for human PM1 cells to IC50 for CCR5-dependent HIV1 Ba-L infected in human PM1 cells

[45] = test system: Human immunodeficiency virus 1; experiment: microbe, parasite or virus in culture; settings: Human immunodeficiency virus 1, SF162, TZM-bl, 48 h
Description: Antiviral activity against CCR5-dependent HIV1 SF162 infected in human TZM-bl cells assessed as reduction in virus infection measured after 48 hrs post infection by luciferase reporter gene assay

[46] = test system: Human immunodeficiency virus 1; experiment: microbe, parasite or virus in culture; settings: Human immunodeficiency virus 1, SF162, PBMC, 168 h
Description: Antiviral activity against CCR5-dependent HIV1 SF162 infected in human PBMC assessed as reduction in virus infection measured after 7 days by luciferase reporter gene assay

[47] = test system: Human immunodeficiency virus 1; experiment: microbe, parasite or virus in culture; settings: Human immunodeficiency virus 1, SF162, HOS, 120 h
Description: Antiviral activity against CCR5-dependent HIV1 SF162 infected in human HOS cells assessed as reduction in virus infection measured after 5 days by luciferase reporter gene assay

[48] = test system: Human immunodeficiency virus 1; experiment: microbe, parasite or virus in culture; settings: Human immunodeficiency virus 1, KM018, PBMC, 168 h
Description: Antiviral activity against CCR5-dependent HIV1 KM018 infected in human PBMC assessed as reduction in virus infection measured after 7 days by luciferase reporter gene assay

[49] = test system: Human immunodeficiency virus 1; experiment: microbe, parasite or virus in culture; settings: Human immunodeficiency virus 1, Ba-L, PBMC, 168 h
Description: Antiviral activity against CCR5-dependent HIV1 Ba-L infected in human PBMC assessed as reduction in virus infection measured 7 days by luciferase reporter gene assay

[50] = test system: Human immunodeficiency virus 1; experiment: microbe, parasite or virus in culture; settings: Human immunodeficiency virus 1, Ba-L, HOS, 120 h
Description: Antiviral activity against CCR5-dependent HIV1 Ba-L infected in human HOS cells assessed as reduction in virus infection measured after 5 days by luciferase reporter gene assay

[51] = test system: Human immunodeficiency virus 1; experiment: microbe, parasite or virus in culture; settings: Human immunodeficiency virus 1, Ba-L, PM1, 120 h
Description: Antiviral activity against CCR5-dependent HIV1 Ba-L infected in human PM1 cells assessed as reduction in virus infection measured after 5 days by luciferase reporter gene assay

In the case of Cc1nnc(C(C)C)n1[C@@H]1C[C@H]2CC[C@@H](C1)N2CC[C@H](NC(=O)C1CCC(F)(F)CC1)c1ccsc1, the IC50 [1] is reported as 3 nM, the CC50 at 48 h [2] is reported as over 200000 nM and the Cmax [3] is reported as 306 ng/mL. The Tmax [4] was 2 h, the half-life [5] was 1.6 h and the AUC(0-inf) [6] was 1260 ng·h/mL. The MRT [7] was 2.6 h, the bioavailability [8] was 14.5% and the Cmax [9] was 3780 ng/mL. It also gave a Tmax [10] of 0.25 h, a half-life [11] of 1.02 h and an AUC(0-inf) [12] of 4160 ng·h/mL. It also gave an MRT [13] of 0.8 h, a clearance [14] of 16.7 mL/min/kg and a Cmax [15] of 4610 ng/mL. It also gave a Tmax [16] of 0.8 h, a half-life [17] of 3.9 h and an AUC(0-inf) [18] of 5520 ng·h/mL. The MRT [19] was 2.1 h, the bioavailability [20] was 10% and the half-life [21] was 1.7 h. For the same molecule, the AUC(0-inf) [22] was 10900 ng·h/mL, the MRT [23] was 1.6 h and the clearance [24] was 5 mL/min/kg. The Stability [25] was over 99%, the Stability [26] was over 98% and the Stability [27] was over 97%. It also gave a Stability [28] of over 97%, an IC50 [29] of over 40000 nM and an IC50 [30] of over 25000 nM. It also gave an IC50 [31] of over 25000 nM, an IC50 [32] of over 25000 nM and an IC50 [33] of over 25000 nM. For the same molecule, the IC50 [34] was over 25000 nM, the IC50 [35] was over 25000 nM and the Activity [36] was “Non-Toxic”. For the same molecule, the Activity [37] was “Non-Toxic”, the selectivity ratio [38] was over 130000 and the selectivity ratio [39] was 160000. For the same molecule, the selectivity ratio [40] was 69000, the selectivity ratio [41] was 290000 and the selectivity ratio [42] was 220000. For the same molecule, the selectivity ratio [43] was 280000, the selectivity ratio [44] was 260000 and the IC50 [45] was 1.5 nM. The IC50 [46] was 4.3 nM, the IC50 [47] was 4.9 nM and the IC50 [48] was 2.3 nM. For the same molecule, the IC50 [49] was 3 nM, the IC50 [50] was 1.2 nM and the IC50 [51] was 2.8 nM.
